We go through 23 compounds from ChEMBL document CHEMBL5316314, “Structure-Activity Relationship Studies of Antimalarial Plasmodium Proteasome Inhibitors─Part II” (J Med Chem, 2023).

Where only a bound is given, the exact number is not on record here.

The data set is described as follows: Kinetic solubility of compound at pH 6.8. Type of data set: physicochemical. Conditions: buffer.

Consider `CC(=O)N[C@H]1Cc2cccc(c2)Oc2cccc(c2)C[C@@H](C(=O)NCC(F)(F)F)NC(=O)[C@H](CCc2ccccc2)NC1=O`, for which the Kinetic_solubility was under 1.4 µg/mL.
Under `O=C(NCC(F)(F)F)[C@@H]1Cc2cccc(c2)Oc2cccc(c2)C[C@H](N2CCCC2=O)C(=O)N[C@@H](CCc2ccccc2)C(=O)N1` stands 3.8 µg/mL.
`Cn1cc(CNC(=O)[C@@H]2Cc3cccc(c3)Oc3cccc(c3)C[C@H](N3CCCS3(=O)=O)C(=O)N[C@@H](CCN3CCCCC3)C(=O)N2)cn1` had a Kinetic_solubility of over 140 µg/mL.
In the case of `O=C(NCC(F)(F)F)[C@@H]1Cc2cccc(c2)Oc2cccc(c2)C[C@H](N2CCCC2=O)C(=O)N[C@@H](CCN2CCC(F)(F)CC2)C(=O)N1`, the Kinetic_solubility was over 140 µg/mL.
Under `CC(=O)N[C@H]1Cc2cccc(c2)Oc2cccc(c2)C[C@@H](C(=O)NCC(F)(F)F)NC(=O)[C@H](CCC(F)(F)F)NC1=O` stands under 1.2 µg/mL.
In turn, `O=C(NCC(F)(F)F)[C@@H]1Cc2cccc(c2)Oc2cccc(c2)C[C@H](N2CCCC2=O)C(=O)N[C@@H](CCN2CCC[C@@H](F)C2)C(=O)N1` returned a Kinetic_solubility of over 130 µg/mL.
As to `COC[C@@H]1NC(=O)[C@@H](NC(C)=O)Cc2cccc(c2)Oc2cccc(c2)C[C@@H](C(=O)NCC(F)(F)F)NC1=O`, the Kinetic_solubility came to 14 µg/mL.
The compound `C[C@H](NC(=O)[C@@H]1Cc2cccc(c2)Oc2cccc(c2)C[C@H](N2CCCC2=O)C(=O)N[C@@H](CCN2CCCCC2)C(=O)N1)C1CC1` displayed a Kinetic_solubility of over 120 µg/mL.
Under `O=C(NCC(F)(F)F)[C@@H]1Cc2cccc(c2)Oc2cccc(c2)C[C@H](N2CCCC2=O)C(=O)N[C@@H](Cc2ccccc2)C(=O)N1` stands 22 µg/mL; under `CN1C(=O)[C@H](CCc2ccccc2)NC(=O)[C@@H](N2CCCC2=O)Cc2cccc(c2)Oc2cccc(c2)C[C@H]1C(=O)NCC(F)(F)F`, 4.2 µg/mL; under `CC(=O)N[C@H]1Cc2cccc(c2)Oc2cccc(c2)C[C@@H](C(=O)NCC(F)(F)F)NC(=O)[C@H](CC(C)C)NC1=O`, under 1.4 µg/mL.
As to `O=C(NC1CCCC1)[C@@H]1Cc2cccc(c2)Oc2cccc(c2)C[C@H](N2CCCS2(=O)=O)C(=O)N[C@@H](CCN2CCOCC2)C(=O)N1`, the Kinetic_solubility was over 130 µg/mL.
On to `O=C(NCC(F)(F)F)[C@@H]1Cc2cccc(c2)Oc2cccc(c2)C[C@H](N2CCOC2=O)C(=O)N[C@@H](CCN2CCCCC2)C(=O)N1`, for which the Kinetic_solubility turned out to be 65 µg/mL.
As for `Cn1cc(CNC(=O)[C@@H]2Cc3cccc(c3)Oc3cccc(c3)C[C@H](N3CCCC3=O)C(=O)N[C@@H](CCN3CCCCC3)C(=O)N2)cn1`, the figure is over 150 µg/mL; as for `O=C(NC1CCCC1)[C@@H]1Cc2cccc(c2)Oc2cccc(c2)C[C@H](N2CCCC2=O)C(=O)N[C@@H](CCN2CCCCC2)C(=O)N1`, over 140 µg/mL; as for `O=C(NCC1CC1)[C@@H]1Cc2cccc(c2)Oc2cccc(c2)C[C@H](N2CCCC2=O)C(=O)N[C@@H](CCN2CCCCC2)C(=O)N1`, over 130 µg/mL.
As for `O=C(NCC1CC1)[C@@H]1Cc2cccc(c2)Oc2cccc(c2)C[C@H](N2CCCC2=O)C(=O)N[C@@H](CCN2CCOCC2)C(=O)N1`, the figure is over 130 µg/mL.
As for `CCC[C@@H]1NC(=O)[C@@H](NC(C)=O)Cc2cccc(c2)Oc2cccc(c2)C[C@@H](C(=O)NCC(F)(F)F)NC1=O`, the figure is under 1.9 µg/mL.
For `CN1C(=O)[C@H](CCc2ccccc2)N(C)C(=O)[C@@H](N2CCCC2=O)Cc2cccc(c2)Oc2cccc(c2)C[C@H]1C(=O)NCC(F)(F)F`, the Kinetic_solubility is 4 µg/mL.
As for `CC1(CNC(=O)[C@@H]2Cc3cccc(c3)Oc3cccc(c3)C[C@H](N3CCCC3=O)C(=O)N[C@@H](CCN3CCCCC3)C(=O)N2)CC1`, the Kinetic_solubility was over 130 µg/mL.
As for `Cn1cc(CNC(=O)[C@@H]2Cc3cccc(c3)Oc3cccc(c3)C[C@H](NS(C)(=O)=O)C(=O)N[C@@H](CCN3CCCCC3)C(=O)N2)cn1`, the figure is over 140 µg/mL.
As for `C[C@@H](NC(=O)[C@@H]1Cc2cccc(c2)Oc2cccc(c2)C[C@H](N2CCCC2=O)C(=O)N[C@@H](CCN2CCCCC2)C(=O)N1)C1CC1`, the figure is over 140 µg/mL; as for `O=C(NCC(F)(F)F)[C@@H]1Cc2cccc(c2)Oc2cccc(c2)C[C@H](N2CCCC2=O)C(=O)N[C@@H](CCN2CCCCC2)C(=O)N1`, over 140 µg/mL.
